Measurements from patent publication US20170022171A1, “2,5-DISUBSTITUTED CYCLOPENTANECARBOXYLIC ACIDS AND THEIR USE” (Bayer Pharma Aktiengesellschaft, priority 2014, published 2017).

Molecular target: T1, human macrophage elastase (HME/hMMP-12) (Homo sapiens, UniProt P39900)
T1 construct: 0.5 nM HME; purchased R&D Systems 917-MP
Test: In vitro HME inhibition test (standard or high-sensitivity)
Format: biochemical
Conditions: in some cases mean values
Experimental: The potency of the compounds according to the invention with respect to HME (MMP-12) is determined in an in vitro inhibition test. The HME-mediated amidolytic cleavage of a suitable peptide substrate leads to an increase in fluorescent light therein. The signal intensity of the fluorescent light is directly proportional to the enzyme activity. The active concentration of a test compound at which half the enzyme is inhibited (50% signal intensity of the fluorescent light) is reported as the IC50 value.
In a 384 hole microtiter plate, in a total test volume of 41 the test buffer (0.1 M HEPES pH 7.4, 0.15 M NaCl, 0.03 M CaCl2, 0.004 mM ZnCl2, 0.02 M EDTA, 0.005% Brij®), the enzyme (0.5 nM HME; from R&D Systems, 917-MP, autocatalytic activation according to the manufacturer's instructions) and the intramolecularly quenched substrate [5 μM Mca-Pro-Leu-Gly-Leu-Glu-Glu-Ala-Dap(Dnp)-NH2; Bachem, M-2670] are incubated in the absence and presence of the test substance (as a solution in DMSO) at 37° C. for two hours. The fluorescence intensity of the test mixtures is measured (excitation […], emission 393 nm). The IC50 values are ascertained by plotting the fluorescent light intensity against the active ingredient concentration.
In this case, an enzyme concentration ten times lower is used (final concentration, for example, 0.05 nM) in order to achieve an elevated test sensitivity. The incubation period chosen for the test is correspondingly longer (for example 16 hours).

T1 sequence (P39900 106-470): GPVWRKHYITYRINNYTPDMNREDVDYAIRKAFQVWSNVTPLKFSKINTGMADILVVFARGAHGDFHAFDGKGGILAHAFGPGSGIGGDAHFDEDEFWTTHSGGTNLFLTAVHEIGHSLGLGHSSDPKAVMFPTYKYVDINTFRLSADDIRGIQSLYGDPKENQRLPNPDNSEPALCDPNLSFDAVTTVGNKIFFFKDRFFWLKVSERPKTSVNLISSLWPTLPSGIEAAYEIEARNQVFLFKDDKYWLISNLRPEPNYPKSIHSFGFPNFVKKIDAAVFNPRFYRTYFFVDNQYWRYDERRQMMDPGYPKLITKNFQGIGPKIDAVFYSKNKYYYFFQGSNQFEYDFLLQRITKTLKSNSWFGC

SMILES	IC50 [nM]
O=C(O)[C@H]1[C@H](Cn2nnc3ccc(C(F)(F)F)cc3c2=O)CC[C@@H]1C(=O)c1ccc(SCC2CCCCC2)cc1 (racemic) [Example 85]	0.22
Cc1ccc2nnn(C[C@@H]3CC[C@H](C(=O)c4ccc(OCCc5ccccc5)cc4)[C@H]3C(=O)O)c(=O)c2c1 (racemic) [Example 112, (+/−)-(1RS,2SR,5RS)-2-[(6-Methyl-4-oxo-1,2,3-benzotriazin-3(4H)-yl)methyl]-5-[4-(2-phenylethoxy)benzoyl]cyclopentanecarboxylic acid]	0.66
CCCCCOc1ccc(C(=O)[C@@H]2CC[C@H](Cn3nnc4ccccc4c3=O)[C@H]2C(=O)O)cc1 (single isomer, unassigned) [Example 9, (−)-(1RS,2SR,5RS)-2-[(4-Oxo-1,2,3-benzotriazin-3(4H)-yl)methyl]-5-[4-(pentyloxy)benzoyl]cyclopentanecarboxylic acid]	145
O=C(O)[C@@H]1[C@@H](Cn2nnc3ccc(C(F)(F)F)cc3c2=O)CC[C@H]1C(=O)c1ccc(OCc2ccc(F)cc2)cc1 (single isomer, unassigned) [Example 14, (−)-(1RS,2RS,5SR)-2-{4-[(4-Fluorobenzyl)oxy]benzoyl}-5-{[4-oxo-6-(trifluoromethyl)-1,2,3-benzotriazin-3(4H)-yl]methyl}cyclopentanecarboxylic acid]	10
Cc1cccc(COc2ccc(C(=O)[C@@H]3CC[C@H](Cn4nnc5ccc(C(F)(F)F)cc5c4=O)[C@H]3C(=O)O)cc2)c1 (single isomer, unassigned) [Example 17, (−)-(1RS,2RS,5SR)-2-{4-[(3-Methylbenzyl)oxy]benzoyl}-5-{[4-oxo-6-(trifluoromethyl)-1,2,3-benzotriazin-3(4H)-yl]methyl}cyclopentanecarboxylic acid]	48
O=C(O)[C@@H]1[C@@H](Cn2nnc3ccc(C(F)(F)F)cc3c2=O)CC[C@H]1C(=O)c1ccc(OCc2cccc(C(F)(F)F)c2)cc1 (single isomer, unassigned) [Example 20, (−)-(1RS,2SR,5RS)-2-{[4-Oxo-6-(trifluoromethyl)-1,2,3-benzotriazin-3(4H)-yl]methyl}-5-(4-{[3-(trifluoromethyl)benzyl]oxy}benzoyl)cyclopentanecarboxylic acid]	4.6
O=C(O)[C@@H]1[C@@H](Cn2nnc3ccc(C(F)(F)F)cc3c2=O)CC[C@H]1C(=O)c1ccc(OCc2cccc(Cl)c2)cc1 (single isomer, unassigned) [Example 22, (−)-(1RS,2RS,5SR)-2-{4-[(3-Chlorobenzyl)oxy]benzoyl}-5-{[4-oxo-6-(trifluoromethyl)-1,2,3-benzotriazin-3(4H)-yl]methyl}cyclopentanecarboxylic acid]	170
O=C(O)[C@@H]1[C@@H](Cn2nnc3ccc(C(F)(F)F)cc3c2=O)CC[C@H]1C(=O)c1ccc(OCc2ccc(Cl)cc2)cc1 (single isomer, unassigned) [Example 26, (−)-(1RS,2RS,5SR)-2-{4-[(4-Chlorobenzyl)oxy]benzoyl}-5-{[4-oxo-6-(trifluoromethyl)-1,2,3-benzotriazin-3(4H)-yl]methyl}cyclopentanecarboxylic acid]	1
O=C(O)[C@@H]1[C@@H](Cn2nnc3ccc(C(F)(F)F)cc3c2=O)CC[C@H]1C(=O)c1ccc(OCc2cccc(N3CCOC3=O)c2)cc1 (single isomer, unassigned) [Example 34, (−)-(1RS,2RS,5SR)-2-(4-{[3-(2-Oxo-1,3-oxazolidin-3-yl)benzyl]oxy}benzoyl)-5-{[4-oxo-6-(trifluoromethyl)-1,2,3-benzotriazin-3(4H)-yl]methyl}cyclopentanecarboxylic acid]	160
O=C(O)[C@@H]1[C@@H](Cn2nnc3ccc(C(F)(F)F)cc3c2=O)CC[C@H]1C(=O)c1ccc(OCCc2ccccc2)cc1 (single isomer, unassigned) [Example 38, (−)-(1RS,2SR,5RS)-2-{[4-Oxo-6-(trifluoromethyl)-1,2,3-benzotriazin-3(4H)-yl]methyl}-5-[4-(2-phenylethoxy)benzoyl]cyclopentanecarboxylic acid]	350
O=C(O)[C@@H]1[C@@H](Cn2nnc3ccc(C(F)(F)F)cc3c2=O)CC[C@H]1C(=O)c1ccc(OCC2CCCCC2)cc1 (single isomer, unassigned) [Example 42, (−)-(1RS,2RS,5SR)-2-[4-(Cyclohexylmethoxy)benzoyl]-5-{[4-oxo-6-(trifluoromethyl)-1,2,3-benzotriazin-3(4H)-yl]methyl}cyclopentanecarboxylic acid]	39
O=C(O)[C@@H]1[C@@H](Cn2nnc3ccc(C(F)(F)F)cc3c2=O)CC[C@H]1C(=O)c1ccc(OCC2CCCC2)cc1 (single isomer, unassigned) [Example 45, (−)-(1RS,2RS,5SR)-2-[4-(Cyclopentylmethoxy)benzoyl]-5-{[4-oxo-6-(trifluoromethyl)-1,2,3-benzotriazin-3(4H)-yl]methyl}cyclopentanecarboxylic acid]	4.1

Stronger by IC50, values ahead:

IC50 [nM]	SMILES
0.21	CCCCCOc1ccc(C(=O)[C@@H]2CC[C@H](Cn3nnc4ccccc4c3=O)[C@H]2C(=O)O)cc1 (single isomer, unassigned) [Example 8, (+)-(1RS,2SR,5RS)-2-[(4-Oxo-1,2,3-benzotriazin-3(4H)-yl)methyl]-5-[4-(pentyloxy)benzoyl]cyclopentanecarboxylic acid]
0.13	Cc1ccc2nnn(C[C@@H]3CC[C@H](C(=O)c4ccc(OCCCc5ccccc5)cc4)[C@H]3C(=O)O)c(=O)c2c1 (racemic) [Example 115, (+/−)-(1RS,2SR,5RS)-2-[(6-Methyl-4-oxo-1,2,3-benzotriazin-3(4H)-yl)methyl]-5-[4-(3-phenylpropoxy)benzoyl]cyclopentanecarboxylic acid]
0.12	O=C(O)[C@H]1[C@H](Cn2nnc3ccc(C(F)(F)F)cc3c2=O)CC[C@@H]1C(=O)c1ccc(SCCc2ccccc2)cc1 (racemic) [Example 82, (+/−)-(1RS,2SR,5RS)-2-{[4-Oxo-6-(trifluoromethyl)-1,2,3-benzotriazin-3(4H)-yl]methyl}-5-{4-[(2-phenylethyl)sulphanyl]benzoyl}cyclopentanecarboxylic acid]
0.1	O=C(O)[C@H]1[C@H](Cn2nnc3ccc(C(F)(F)F)cc3c2=O)CC[C@@H]1C(=O)c1ccc(SCc2cccc(Cl)c2)cc1 (racemic) [Example 76, (+/−)-(1RS,2RS,5SR)-2-{4-[(3-Chlorobenzyl)sulphanyl]benzoyl}-5-{[4-oxo-6-(trifluoromethyl)-1,2,3-benzotriazin-3(4H)-yl]methyl}cyclopentanecarboxylic acid]
0.1	CCCCCCOc1ccc(C(=O)[C@H]2CC[C@@H](Cn3nnc4ccc(C)cc4c3=O)[C@@H]2C(=O)O)cc1 (racemic) [Example 120, (+/−)-(1RS,2RS,5SR)-2-[4-(Hexyloxy)benzoyl]-5-[(6-methyl-4-oxo-1,2,3-benzotriazin-3(4H)-yl)methyl]cyclopentanecarboxylic acid]
0.093	Cc1ccc2nnn(C[C@@H]3CC[C@H](C(=O)c4ccc(OCC5CCCCC5)cc4)[C@H]3C(=O)O)c(=O)c2c1 (racemic) [Example 116, (+/−)-(1RS,2RS,5SR)-2-[4-(Cyclohexylmethoxy)benzoyl]-5-[(6-methyl-4-oxo-1,2,3-benzotriazin-3(4H)-yl)methyl]cyclopentanecarboxylic acid]
0.08	O=C(O)[C@@H]1[C@@H](Cn2nnc3ccc(C(F)(F)F)cc3c2=O)CC[C@H]1C(=O)c1ccc(OCCc2ccccc2)cc1 (single isomer, unassigned) [Example 37, (+)-(1RS,2SR,5RS)-2-{[4-Oxo-6-(trifluoromethyl)-1,2,3-benzotriazin-3(4H)-yl]methyl}-5-[4-(2-phenylethoxy)benzoyl]cyclopentanecarboxylic acid]
0.055	Cc1ccc2nnn(C[C@@H]3CC[C@H](C(=O)c4ccc(OCc5ccc(F)cc5)cc4)[C@H]3C(=O)O)c(=O)c2c1 (racemic) [Example 94, (+/−)-(1RS,2RS,5SR)-2-{4-[(4-Fluorobenzyl)oxy]benzoyl}-5-[(6-methyl-4-oxo-1,2,3-benzotriazin-3(4H)-yl)methyl]cyclopentanecarboxylic acid]
0.048	Cc1ccc2nnn(C[C@@H]3CC[C@H](C(=O)c4ccc(OCC5CCCC5)cc4)[C@H]3C(=O)O)c(=O)c2c1 (racemic) [Example 119, (+/−)-(1RS,2RS,5SR)-2-[4-(Cyclopentylmethoxy)benzoyl]-5-[(6-methyl-4-oxo-1,2,3-benzotriazin-3(4H)-yl)methyl]cyclopentanecarboxylic acid]
0.025	O=C(O)[C@@H]1[C@@H](Cn2nnc3ccc(C(F)(F)F)cc3c2=O)CC[C@H]1C(=O)c1ccc(OCC2CCC2)cc1 (single isomer, unassigned) [Example 47, (+)-(1RS,2RS,5SR)-2-[4-(Cyclobutylmethoxy)benzoyl]-5-{[4-oxo-6-(trifluoromethyl)-1,2,3-benzotriazin-3(4H)-yl]methyl}cyclopentanecarboxylic acid]
